One test deals with T1, cortical CCK receptor (Cavia porcellus, UniProt H0VZC5).
T1 construct: Cortical and pancreatic membranes were prepared as described; from tissue; host or cells: guinea pig cerebral cortex membranes
T1 sequence (H0VZC5 1-426): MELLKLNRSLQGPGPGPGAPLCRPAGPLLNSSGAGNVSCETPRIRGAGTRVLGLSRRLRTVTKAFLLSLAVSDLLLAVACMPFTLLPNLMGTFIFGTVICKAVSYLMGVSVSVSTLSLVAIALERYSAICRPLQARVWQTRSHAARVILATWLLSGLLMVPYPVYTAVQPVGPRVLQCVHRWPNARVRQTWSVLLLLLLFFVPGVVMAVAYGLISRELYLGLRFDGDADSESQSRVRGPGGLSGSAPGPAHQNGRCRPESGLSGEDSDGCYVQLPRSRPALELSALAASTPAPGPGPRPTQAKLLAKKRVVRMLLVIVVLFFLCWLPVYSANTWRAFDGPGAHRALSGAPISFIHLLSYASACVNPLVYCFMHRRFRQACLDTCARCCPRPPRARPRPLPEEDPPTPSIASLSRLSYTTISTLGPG
Nature of the test: Radioligand binding ([125I]Bolton-Hunter CCK8) in guinea pig cerebral cortical membranes. As to conditions: displacement of [125I]BH-CCK8, cortical membranes, 30°C for 150 min, Hill analysis; read-out: IC₅₀ (nM) cortex. The text has this:
Protocol for Radioligand Binding Experiments in Guinea Pig Cerebral Cortical and Pancreatic Membrance Preparations
CCK8 (Asp-Tyr(SO₃H)-Met-Gly-Trp-Met-Asp-Phe-NH₂), bestatin and phosphormaidon were purchased from Peptide International (Louisville, KY). EGTA, HEPES, BSA were purchased from Sigma Chemical Co. (St. Louis, MO). [¹²⁵I]-Bolton-Hunter CCK8 (BH-CCK8) (specific activity, 2200 Ci, mmol) was obtained from New England Nuclear (Boston, MA). Male ginea pigs, 250 to 325 g, were obtained from Scientific Small Animal Laboratory and Farm (Arlington Heights, IL). Collangenase, code CLSPA was purchased from Worthington (Frehold, NJ).
Cortical and pancreatic membranes were prepared as described (Lin and Miller; J. Pharmacol. Exp. Ther. 232, 775-780, 1985). In brief, pancreas and cortex were removed and rinsed with ice-cold saline. Visible fat and connective tissues were removed from the pancreas. Tissues were weighed and homogenized in approximately 25 mL of ice-cold 50 mM Tris-HCl buffer, pH 7.4 at 4°C with a Brinkman Polytron for 30 sec, setting 7. The homogenates were centrifuged for 10 min at 1075 x g and the pellet was discarded. The supernantants were saved and centrifuged at 38,730 x g for 20 min. The resultant pellets were rehomogenized in 25 mL of 50 mM Tris-HCl buffer with a Teflon-glass homogenizer, 5 up and down strokes. The homogenates were centrifuged again at 38,730 x g for 20 min. The pellets were then resuspended in 20 mM HEPES, containing 1 mM EGTA, 118 mM NaCl, 4.7 mM KCl, 5mM MgCl₂, 100 uM bestatin, 3 uM phosphoramidon, pH 7.4 at 22°C with a Teflon-glass homogenizer, 15 up and down strokes. The resuspension volume used for the cortex was 15 mL per g of original wet weight and 60 mL per g for pancreas.
[¹²⁵I]Bolton-Hunter CCK8 and test compounds were diluted with HEPES-EGTA-salt buffer (see above) containing 0.5% bovine serum albumin (BSA). To 1 mL Skatron polystyrene tubes were added 25 uL of test compounds, 25 uL of [¹²⁵I]BH-CCK8 and 200 uL of membrane suspension. The final BSA concentration was 0.1%. The cortical tissues were incubated at 30°C for 150 min. and pancreatic tissues were incubated at 37°C for 150 min. Incubations were terminated by filtration using Skatron Cell Harvester and SS32 microfiber filter mats. The specific binding of [¹²⁵I]BH-CCK8, defined as the difference betwen binding in the absence and presence of 1 uM CCK8, was 85-90% of total binding in cortex and 90-95% in pancreas. IC₅₀s were determined from the Hill analysis.

The target of another test is T2, CCK receptors (Cavia porcellus, UniProt Q63931).
T2 construct: Cortical and pancreatic membranes were prepared as described; from tissue; host or cells: guinea pig pancreas membranes
T2 sequence (Q63931 1-430): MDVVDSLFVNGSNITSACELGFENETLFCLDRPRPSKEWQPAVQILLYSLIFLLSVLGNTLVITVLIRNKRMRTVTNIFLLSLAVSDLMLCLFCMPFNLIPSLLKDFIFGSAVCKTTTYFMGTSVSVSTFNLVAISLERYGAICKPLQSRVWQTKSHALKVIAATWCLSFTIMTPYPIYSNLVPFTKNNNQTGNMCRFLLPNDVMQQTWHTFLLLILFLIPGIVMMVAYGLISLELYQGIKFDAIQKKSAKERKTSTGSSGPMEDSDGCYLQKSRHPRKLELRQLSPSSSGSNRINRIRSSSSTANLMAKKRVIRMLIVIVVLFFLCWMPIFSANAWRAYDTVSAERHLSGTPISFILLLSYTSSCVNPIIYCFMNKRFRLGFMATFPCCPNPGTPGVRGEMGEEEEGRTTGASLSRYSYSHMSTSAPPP
Put plainly: Radioligand binding ([125I]Bolton-Hunter CCK8) in guinea pig pancreatic membranes. As to conditions: displacement of [125I]BH-CCK8, pancreatic membranes, 37°C for 150 min, Hill analysis; read-out: IC₅₀ (uM) pancreas. For orientation: Loss of bound radioactivity is the signal in a displacement assay; it reports binding, not function.

Experimental for CCK receptors: EGTA, HEPES, BSA were purchased from Sigma Chemical Co. (St. Louis, MO). […] Male ginea pigs, 250 to 325 g, were obtained from Scientific Small Animal Laboratory and Farm (Arlington Heights, IL). Collangenase, code CLSPA was purchased from Worthington (Frehold, NJ).
The final BSA concentration was 0.1%. The cortical tissues were incubated at 30°C for 150 min. and pancreatic tissues were incubated at 37°C for 150 min. Incubations were terminated by filtration using Skatron Cell Harvester and SS32 microfiber filter mats. […] IC₅₀s were determined from the Hill analysis.

Turning to `CCC[C@H]1CCN(C(=O)[C@@H]2Cc3c[nH]c4cccc(c34)CC(=O)N2)[C@@H]1C(=O)N[C@@H](CC(=O)O)C(=O)N[C@@H](Cc1ccccc1)C(N)=O` [Example 48, Ctp-Tpp-Asp-Phe-NH₂], the IC50 on cortical CCK receptor is 0.7 nM; on CCK receptors, 3.5 µM.

The values above are taken from patent publication EP0405506A1, “Tetrapeptide type-B CCK receptor ligands” (ABBOTT LABORATORIES, priority 1989, dated 1991).
